28 molecules from patent US20260001889A1, “COMPOSITIONS USEFUL FOR MODULATING SPLICING” (Skyhawk Therapeutics, Inc., priority 2022, published 2026) can be followed below.

In experiment [1] the test system is ATXN3 transcripts containing exon 4. The experiment in a line: ATXN3 Quantitative Splicing Assay (qPCR, E4E5 primers/probe). The conditions noted are these: Homo sapiens, SK-N-MC cells, compounds for 24 h. Format: cell-based. As to the method:
Example 34: ATXN3 Quantitative Splicing Assay
Human neuroblastoma SK-N-MC cells were plated in 384-well plates at 20,000 cells/well. Twenty-four hours after plating, cells were treated with compounds for 24 h at appropriate concentrations ranging from 30 μM to 0.6 nM (0.300 DMSO). Treated cells were lysed in 15 μL of lysis buffer, and cDNA was synthesized using the Fast Advanced Cells-to-Ct kit. Two […] of each cDNA was used in qPCR reactions to confirm the exon 4 skipped transcripts of ATXN3. A second set of primers/probe E4E5 was used to detect the transcripts containing exon 4. The third set of primers/probe E8E9 was used to detect total gene level of ATXN3. The qPCR reactions were prepared in 384-well plates in 10 μL volume, using TaqMan™ Fast Advanced Master Mix with primers and probes shown in the table below. Reactions were run in a Quant Studio 6 qPCR instrument with default settings.
The primers and probes are listed below in Table 4.
Background: Real-time PCR tracks product formation cycle by cycle.

For experiment [2], the system named is total ATXN3 protein. The experiment is described as follows: ATXN3 Total Protein Assay (Mesoscale Discovery, SK-N-MC cells). The conditions noted are these: incubation for 48 hours, MSD assay. Type of experiment: cell-based, Human. Here is the method:
Example 35: ATXN3 Total Protein Assay
Human neuroblastoma SK-N-MC cells were seeded at 10,000 cells/well in 384 well plates one day prior to compound treatment. The concentrations of compounds were tested at appropriate doses ranging from 30 μM to 0.6 nM. After incubation for 48 hours, the cells were lysed with 25 μL of lysis buffer containing protease inhibitors, and total ATXN3 protein levels were assessed by Mesoscale Discovery (MSD) assay developed with one pair of anti-ATXN3 antibodies. The capture and detect antibodies were raised in mouse and rabbit respectively. Anti-rabbit MSD-ST antibody was used for secondary antibody.
ATXN3 recombinant protein was used for standards. The readouts were captured with 35 μL of MSD read buffer and multi-array 384-well high binding plates.

Experiment [3] relates to ATXN3-HiBiT protein. The experiment in a line: ATXN3 Total Protein Assay (Kelly-ATXN3-HiBiT luminescence). Type of experiment: cell-based. The conditions noted are these: Kelly-ATXN3-HiBiT cells, 48 h after addition of compound. A digest of the protocol: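 Endogenous ATXN3-HiBiT protein in knock-in Kelly neuroblastoma cells measured by lytic HiBiT luminescence 48 h post-compound (added 24 h after seeding 2000 cells/well). Values are fold changes relative to DMSO, with viability from a parallel CellTiter-Glo plate.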
(In general: With HiBiT, luminescence reflects the tagged protein that the partner subunit can reach.)

Regarding `N[C@H](Cc1oc2c(NCc3cccs3)cc(Cl)nc2c1Br)[C@H]1CCOC1` (single isomer, unassigned) [Compound 99], the IC50 in experiment [1] and in experiment [2] was 101 to 500 nM in each case. In addition, the EC50 (as a rule, the concentration at which the effect is half-maximal) in experiment [3] is 501 to 5000 nM.
In the case of `N[C@H](Cc1oc2c(NCc3cccs3)cc(Cl)nc2c1Br)[C@@H]1CCOC1` (single isomer, unassigned) [Compound 100], the IC50 (as a rule, the midpoint of a concentration-inhibition curve) fell in the range of 501 to 5000 nM in experiment [1] and 5000 to 10000 nM in experiment [2]. In experiment [3], this molecule showed an EC50 of 10000 to 40000 nM.
The corresponding values for `N[C@@H](Cc1oc2c(NCc3cccs3)cc(Cl)nc2c1Br)[C@@H]1CCOC1` (single isomer, unassigned) [Compound 214] are 501 to 5000 nM, 501 to 5000 nM and 501 to 5000 nM.
On the same counts, the results for `N[C@@H](Cc1oc2c(NCc3cccs3)cc(Cl)nc2c1Br)[C@H]1CCOC1` (single isomer, unassigned) [Compound 215] are 10000 to 40000 nM, 10000 to 40000 nM and 10000 to 40000 nM.
On the same counts, the results for `Cc1c(C[C@H](C)N)oc2c(NCc3cccs3)cc(Cl)nc12` [Compound 11, 2-[(S)-2-aminopropyl]-5-chloro-3-methyl-7-thenylamino-1-oxa-4-azaindene] are 101 to 500 nM, 101 to 500 nM and 0.01 to 100 nM.
Turning to `CC[C@H](N)Cc1oc2c(NCc3cccs3)cc(Cl)nc2c1C` [Compound 13, 2-[(S)-2-aminobutyl]-5-chloro-3-methyl-7-thenylamino-1-oxa-4-azaindene], the half-maximal inhibitory concentration (IC50) in experiment [1] and in experiment [2] was 101 to 500 nM each time. The same molecule gave an EC50 in experiment [3] of 101 to 500 nM.
Regarding `Cc1c(C[C@@H](N)CC2CC2)oc2c(NCc3cccs3)cc(Cl)nc12` [Compound 14, 2-[(S)-2-amino-3-cyclopropylpropyl]-5-chloro-3-methyl-7-thenylamino-1-oxa-4-azaindene], the half-inhibitory concentration (IC50) in experiment [1] and in experiment [2] was 101 to 500 nM throughout. The EC50 in experiment [3] was 0.01 to 100 nM.
Regarding `C[C@H](N)Cc1oc2c(NCc3cccs3)cc(Cl)nc2c1Cl` [Compound 16, 2-[(S)-2-aminopropyl]-3,5-dichloro-7-thenylamino-1-oxa-4-azaindene], the half-inhibitory concentration (IC50) in experiment [1] and in experiment [2] was 0.01 to 100 nM each time. Further, in experiment [3], the EC50 lay in the range of 0.01 to 100 nM.
`C[C@H](N)Cc1oc2c(NCc3cccs3)cc(Cl)nc2c1Br` [Compound 17, 2-[(S)-2-aminopropyl]-3-bromo-5-chloro-7-thenylamino-1-oxa-4-azaindene]: the IC50 in experiment [1] and in experiment [2] was 0.01 to 100 nM throughout. Also, the EC50 in experiment [3] fell in the range of 0.01 to 100 nM.
On to `C[C@H](N)Cc1oc2c(NCc3cccs3)cc(Cl)nc2c1C#N` [Compound 18, 2-[(S)-2-aminopropyl]-5-chloro-7-thenylamino-1-oxa-4-aza-3-indenecarbonitrile], for which the IC50 in experiment [1] was in the range of 10000 to 40000 nM; in experiment [2], 5000 to 10000 nM. The EC50 in experiment [3] fell in the range of 5000 to 10000 nM.
Regarding `N[C@@H](CO)Cc1oc2c(NCc3cccs3)cc(Cl)nc2c1Br` [Compound 20, (R)-2-amino-3-(3-bromo-5-chloro-7-thenylamino-1-oxa-4-aza-2-indenyl)-1-propanol], the half-inhibitory concentration (IC50) in experiment [1] and in experiment [2] was 0.01 to 100 nM each time. Also, the EC50 in experiment [3] fell in the range of 0.01 to 100 nM.
Regarding `N[C@@H](CO)Cc1oc2c(NCc3cccs3)cc(Cl)nc2c1Cl` [Compound 21, (R)-2-amino-3-(3,5-dichloro-7-thenylamino-1-oxa-4-aza-2-indenyl)-1-propanol], the IC50 in experiment [1] and in experiment [2] was 0.01 to 100 nM in each case. In experiment [3], the EC50 lay within 0.01 to 100 nM.
Take `N[C@@H](CO)Cc1oc2c(NCc3ccco3)cc(Cl)nc2c1Br` [Compound 22, (R)-2-amino-3-[3-bromo-5-chloro-7-(furfurylamino)-1-oxa-4-aza-2-indenyl]-1-propanol]: the 50% inhibitory concentration (IC50) in experiment [1] and in experiment [2] was 0.01 to 100 nM throughout. For the same molecule, in experiment [3], the EC50 was 0.01 to 100 nM.
As to `N[C@@H](CO)Cc1oc2c(NCc3ccco3)cc(Cl)nc2c1Cl` [Compound 23, (R)-2-amino-3-[3,5-dichloro-7-(furfurylamino)-1-oxa-4-aza-2-indenyl]-1-propanol], the 50% inhibitory concentration (IC50) in experiment [1] and in experiment [2] was 0.01 to 100 nM in each case. The molecule also registered a concentration giving a half-maximal response (EC50) in experiment [3] of 0.01 to 100 nM.
As to `N[C@H](Cc1oc2c(NCc3cccs3)cc(Cl)nc2c1Cl)CC(F)(F)F` [Compound 25, 2-[(R)-2-amino-4,4,4-trifluorobutyl]-3,5-dichloro-7-thenylamino-1-oxa-4-azaindene], the IC50 in experiment [1] and in experiment [2] was 501 to 5000 nM in each case. For the same molecule, the EC50 in experiment [3] is 101 to 500 nM.
Consider `N[C@H](Cc1oc2c(NCc3ccco3)cc(Cl)nc2c1Br)CC(F)(F)F` [Compound 26, 2-[(R)-2-amino-4,4,4-trifluorobutyl]-3-bromo-5-chloro-7-(furfurylamino)-1-oxa-4-azaindene], for which the IC50 in experiment [1] and in experiment [2] was 101 to 500 nM in each case. The EC50 in experiment [3] was 501 to 5000 nM.
For the molecule `N[C@H](Cc1oc2c(NCc3ccco3)cc(Cl)nc2c1Cl)CC(F)(F)F` [Compound 27, 2-[(R)-2-amino-4,4,4-trifluorobutyl]-3,5-dichloro-7-(furfurylamino)-1-oxa-4-azaindene], the IC50 in experiment [1] and in experiment [2] was 501 to 5000 nM throughout. The same molecule gave a 50% effective concentration (EC50) in experiment [3] of 501 to 5000 nM.
Regarding `Cc1c(C[C@@H](N)CCF)oc2c(NCc3cccs3)cc(Cl)nc12` [Compound 31, 2-[(2R)-2-amino-4-fluorobutyl]-5-chloro-3-methyl-N-(thiophen-2-ylmethyl)furo[3,2-b]pyridin-7-amine], the IC50 in experiment [1] and in experiment [2] was 101 to 500 nM each time. Also, the half-maximal effective concentration (EC50) in experiment [3] was 101 to 500 nM.
Regarding `C[C@H](N)Cc1oc2c(NCc3ccco3)cc(Cl)nc2c1Br` [Compound 34, 2-[(S)-2-aminopropyl]-3-bromo-5-chloro-7-(furfurylamino)-1-oxa-4-azaindene], the IC50 in experiment [1] and in experiment [2] was 0.01 to 100 nM in each case. The molecule also registered an EC50 in experiment [3] of 0.01 to 100 nM.
In the case of `C[C@H](N)Cc1oc2c(NCc3cccs3)cc(C#N)nc2c1Br` [Compound 35, 2-[(S)-2-aminopropyl]-3-bromo-7-thenylamino-1-oxa-4-aza-5-indenecarbonitrile], the IC50 in experiment [1] and in experiment [2] was 101 to 500 nM throughout. This molecule yielded an EC50 in experiment [3] of 101 to 500 nM.
For the molecule `COC[C@H](N)Cc1oc2c(NCc3ccco3)cc(Cl)nc2c1Br` [Compound 38, 2-[(R)-2-amino-3-methoxypropyl]-3-bromo-5-chloro-7-(furfurylamino)-1-oxa-4-azaindene], the values for the concentration for half-maximal inhibition (IC50) in experiment [1] and in experiment [2] were 101 to 500 nM and 0.01 to 100 nM, respectively.
The corresponding values for `N[C@@H](CF)Cc1oc2c(NCc3ccco3)cc(Cl)nc2c1Br` [Compound 39, 2-[(R)-2-amino-3-fluoropropyl]-3-bromo-5-chloro-7-(furfurylamino)-1-oxa-4-azaindene] are 0.01 to 100 nM and 0.01 to 100 nM.
On the same counts, the results for `Cc1c(C[C@@H](N)[C@@H](C)F)oc2c(NCc3cccs3)cc(Cl)nc12` [Compound 42, 2-[(2R,3R)-2-amino-3-fluorobutyl]-5-chloro-3-methyl-7-thenylamino-1-oxa-4-azaindene] are 501 to 5000 nM and 501 to 5000 nM.
On the same counts, the results for `COC[C@H](N)Cc1oc2c(NCc3ccccc3)cc(Cl)nc2c1Br` [Compound 47, 2-[(R)-2-amino-3-methoxypropyl]-7-benzylamino-3-bromo-5-chloro-1-oxa-4-azaindene] are 101 to 500 nM and 101 to 500 nM.
As to `COC[C@H](N)Cc1oc2c(NCc3nccs3)cc(Cl)nc2c1Br` [Compound 49, 2-[(R)-2-amino-3-methoxypropyl]-3-bromo-5-chloro-7-{[(1,3-thiazol-2-yl)methyl]amino}-1-oxa-4-azaindene], the IC50 in experiment [1] and in experiment [2] was 101 to 500 nM each time.
`C[C@H](N)Cc1oc2c(NCc3ccco3)cc(Cl)nc2c1Cl` [Compound 54, 2-[(S)-2-aminopropyl]-3,5-dichloro-7-(furfurylamino)-1-oxa-4-azaindene]: the IC50 in experiment [1] lay within 101 to 500 nM; in experiment [2], 0.01 to 100 nM.
On the same counts, the results for `N[C@H](Cc1oc2c(NCc3cccs3)cc(Cl)nc2c1Br)CC1CC1` [Compound 55, 2-[(S)-2-amino-3-cyclopropylpropyl]-3-bromo-5-chloro-7-thenylamino-1-oxa-4-azaindene] are 0.01 to 100 nM and 0.01 to 100 nM.
The corresponding values for `N[C@H](Cc1oc2c(NCc3ccco3)cc(Cl)nc2c1Br)CC1CC1` [Compound 56, 2-[(S)-2-amino-3-cyclopropylpropyl]-3-bromo-5-chloro-7-(furfurylamino)-1-oxa-4-azaindene] are 0.01 to 100 nM and 0.01 to 100 nM.
